Values joined by “and” are separate entries in the source; they are usually repeats but may differ in a detail not shown here. Equal values may be shown once.
Assay: molar heat capacity at constant pressure
Conditions: 101.33 kPa, Crystal, Small sample (50 mg) DSC

[Ca+2].[O]=[Mo](=[O])([O-])[O-] [calcium molybdate(VI)]
Conditions	molar heat capacity at constant pressure
495.4 K	135.5 J/K/mol
495.8 K	135.8 J/K/mol
496.4 K	135.6 J/K/mol
496.8 K	135.8 J/K/mol
497.4 K	135.6 J/K/mol
497.8 K	135.9 J/K/mol
498.4 K	135.7 J/K/mol
498.8 K	136 J/K/mol
499.4 K	135.8 J/K/mol
499.8 K	136 J/K/mol
500 K	136 J/K/mol
500.4 K	135.9 J/K/mol
500.8 K	136.1 J/K/mol
501.4 K	136 J/K/mol
501.8 K	136.1 J/K/mol
502.4 K	136.1 J/K/mol
502.8 K	136.1 J/K/mol
503.4 K	136.2 J/K/mol
503.8 K	136.2 J/K/mol
504.4 K	136.2 J/K/mol
504.8 K	136.2 J/K/mol
505.4 K	136.3 J/K/mol
505.8 K	136.3 J/K/mol
506.4 K	136.3 J/K/mol
506.8 K	136.4 J/K/mol
507.4 K	136.4 J/K/mol
507.8 K	136.5 J/K/mol
508.4 K	136.5 J/K/mol
508.8 K	136.5 J/K/mol
509.4 K	136.6 J/K/mol
509.8 K	136.5 J/K/mol
510 K	136.6 J/K/mol
510.4 K	136.6 J/K/mol
510.8 K	136.6 J/K/mol
511.4 K	136.7 J/K/mol
511.8 K	136.7 J/K/mol
512.4 K	136.8 J/K/mol
512.8 K	136.8 J/K/mol
513.4 K	136.9 J/K/mol
513.8 K	136.9 J/K/mol
514.4 K	137 J/K/mol
514.8 K	136.9 J/K/mol
515.4 K	137.1 J/K/mol
515.8 K	137 J/K/mol
516.4 K	137.1 J/K/mol
516.8 K	137 J/K/mol
517.4 K	137.2 J/K/mol
517.8 K	137.1 J/K/mol
518.4 K	137.3 J/K/mol
518.8 K	137.2 J/K/mol
519.4 K	137.3 J/K/mol
519.8 K	137.3 J/K/mol
520 K	137.3 J/K/mol
520.4 K	137.4 J/K/mol
520.8 K	137.3 J/K/mol
521.4 K	137.5 J/K/mol
521.8 K	137.4 J/K/mol
522.4 K	137.6 J/K/mol
522.8 K	137.5 J/K/mol
523.4 K	137.7 J/K/mol
523.8 K	137.6 J/K/mol
524.4 K	137.7 J/K/mol
524.8 K	137.6 J/K/mol
525.4 K	137.8 J/K/mol
525.8 K	137.7 J/K/mol
526.4 K	137.8 J/K/mol
526.8 K	137.7 J/K/mol
527.4 K	137.9 J/K/mol
527.8 K	137.7 J/K/mol
528.4 K	137.9 J/K/mol
528.9 K	137.8 J/K/mol
529.4 K	138 J/K/mol
529.9 K	137.8 J/K/mol
530 K	137.9 J/K/mol
530.4 K	138.1 J/K/mol
530.9 K	137.8 J/K/mol
531.4 K	138.1 J/K/mol
531.9 K	137.8 J/K/mol
532.4 K	138.2 J/K/mol
532.9 K	137.9 J/K/mol
533.4 K	138.2 J/K/mol
533.9 K	138 J/K/mol
534.4 K	138.3 J/K/mol
534.9 K	138.1 J/K/mol
535.4 K	138.3 J/K/mol
535.9 K	138.2 J/K/mol
536.4 K	138.4 J/K/mol
536.9 K	138.3 J/K/mol
537.4 K	138.5 J/K/mol
537.9 K	138.4 J/K/mol
538.4 K	138.5 J/K/mol
538.9 K	138.5 J/K/mol
539.4 K	138.6 J/K/mol
539.9 K	138.7 J/K/mol
540 K	138.4 J/K/mol
540.4 K	138.7 J/K/mol
540.9 K	138.8 J/K/mol
541.4 K	138.7 J/K/mol
541.9 K	138.8 J/K/mol
542.4 K	138.8 J/K/mol
542.9 K	138.8 J/K/mol
543.4 K	138.8 J/K/mol
543.9 K	138.9 J/K/mol
544.4 K	138.9 J/K/mol
544.9 K	138.9 J/K/mol
545.4 K	138.9 J/K/mol
545.9 K	138.9 J/K/mol
546.4 K	139 J/K/mol
546.9 K	138.9 J/K/mol
547.4 K	139 J/K/mol
547.9 K	139 J/K/mol
548.4 K	139 J/K/mol
548.9 K	139.1 J/K/mol
549.4 K	139 J/K/mol
549.9 K	139.2 J/K/mol
550 K	139 J/K/mol
550.4 K	139.1 J/K/mol
550.9 K	139.3 J/K/mol
551.4 K	139.1 J/K/mol
551.9 K	139.5 J/K/mol
552.4 K	139.2 J/K/mol
552.9 K	139.6 J/K/mol
553.4 K	139.2 J/K/mol
553.9 K	139.7 J/K/mol
554.4 K	139.3 J/K/mol
554.9 K	139.8 J/K/mol
555.4 K	139.3 J/K/mol
555.9 K	139.8 J/K/mol
556.4 K	139.4 J/K/mol
556.9 K	139.8 J/K/mol
557.4 K	139.5 J/K/mol
557.9 K	139.8 J/K/mol
558.4 K	139.5 J/K/mol
558.9 K	139.8 J/K/mol
559.4 K	139.6 J/K/mol
559.9 K	139.9 J/K/mol
560 K	139.5 J/K/mol
560.4 K	139.7 J/K/mol
560.9 K	139.9 J/K/mol
561.4 K	139.7 J/K/mol
561.9 K	140 J/K/mol
562.4 K	139.8 J/K/mol
562.9 K	140.2 J/K/mol
563.4 K	139.8 J/K/mol
563.9 K	140.4 J/K/mol
564.4 K	139.9 J/K/mol
564.9 K	140.6 J/K/mol
565.4 K	139.9 J/K/mol
565.9 K	140.7 J/K/mol
566.4 K	139.9 J/K/mol
566.9 K	140.8 J/K/mol
567.4 K	139.9 J/K/mol
568 K	140.8 J/K/mol
568.4 K	140 J/K/mol
569 K	140.9 J/K/mol
569.4 K	140.1 J/K/mol
570 K	140 J/K/mol and 141 J/K/mol
570.4 K	140.2 J/K/mol
571 K	141 J/K/mol
571.4 K	140.2 J/K/mol
572 K	141 J/K/mol
572.4 K	140.3 J/K/mol
573 K	141 J/K/mol
573.4 K	140.3 J/K/mol
574 K	141.1 J/K/mol
574.4 K	140.4 J/K/mol
575 K	141.2 J/K/mol
575.4 K	140.4 J/K/mol
576 K	141.2 J/K/mol
576.4 K	140.5 J/K/mol
577 K	141.3 J/K/mol
577.4 K	140.6 J/K/mol
578 K	141.3 J/K/mol
578.4 K	140.7 J/K/mol
579 K	141.2 J/K/mol
579.4 K	140.7 J/K/mol
580 K	140.5 J/K/mol and 141.2 J/K/mol
580.4 K	140.8 J/K/mol
581 K	141.2 J/K/mol
581.4 K	140.8 J/K/mol
582 K	141.3 J/K/mol
582.4 K	140.8 J/K/mol
583 K	141.3 J/K/mol
583.4 K	140.9 J/K/mol
584 K	141.4 J/K/mol
584.4 K	140.9 J/K/mol
585 K	141.6 J/K/mol
585.4 K	141 J/K/mol
586 K	141.7 J/K/mol
586.4 K	141 J/K/mol
587 K	141.8 J/K/mol
587.4 K	141 J/K/mol
588 K	141.9 J/K/mol
588.4 K	141 J/K/mol
589 K	142 J/K/mol
589.4 K	141 J/K/mol
590 K	141 J/K/mol and 142.1 J/K/mol
590.4 K	141.1 J/K/mol
591 K	142.1 J/K/mol
591.4 K	141.2 J/K/mol
592 K	142 J/K/mol
592.4 K	141.2 J/K/mol
593 K	142 J/K/mol
593.4 K	141.2 J/K/mol
594 K	142 J/K/mol
594.4 K	141.2 J/K/mol
595 K	142 J/K/mol
595.4 K	141.2 J/K/mol
596 K	142.1 J/K/mol

Source: the NIST ThermoML archive (doi:10.1016/j.tca.2018.01.023)
